From the supplement of paper PMC10307832

What was measured:
Test in all cases: relative viability (nuclei count vs DMSO), 5 days (fraction); higher = more cells survive
[1] = compound: CCn1c(-c2nonc2N)nc2cnc(Oc3cccc(NC(=O)c4ccc(OCCN5CCOCC5)cc4)c3)cc21 + CS(=O)(=O)CCNCc1ccc(-c2ccc3ncnc(Nc4ccc(OCc5cccc(F)c5)c(Cl)c4)c3c2)o1 [Lapatinib] (partner 2 µM)
Summary of the method: (§1)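 Each reported value is a median over duplicate plates. It expresses relative viability: treated-well nuclei count divided by vehicle-well nuclei count. Lung cancer cell lines in 1536-well plates were dosed by pin tool a day after seeding, alone with one drug or with a fixed anchor-drug dose plus five library-drug doses (not always all listed) in √10 steps, and nuclei were counted after 5 days.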

Mirin + Luminespib = compound: N=C1NC(=O)/C(=C/c2ccc(O)cc2)S1 [Mirin] + CCNC(=O)c1noc(-c2cc(C(C)C)c(O)cc2O)c1-c1ccc(CN2CCOCC2)cc1 [Luminespib] (partner 0.01 µM)
Summary of the method: as §1

Mirin + Dasatinib = compound: N=C1NC(=O)/C(=C/c2ccc(O)cc2)S1 [Mirin] + Cc1nc(Nc2ncc(C(=O)Nc3c(C)cccc3Cl)s2)cc(N2CCN(CCO)CC2)n1 [Dasatinib] (partner 0.075 µM)
Summary of the method: as §1

[2] = compound: CCC1=CN=CN=C1N2CCN(CC2)CC3=NC4=C(N3)C=C(C=C4)C(F)(F)F + N=C(N)NC(=N)NCCc1ccccc1 [Phenformin] (partner 250 µM)
Summary of the method: as §1

Which results are given for UMC-11?
relative viability ([1]; first compound 0.04 µM): 0.959; relative viability ([1]; first compound 0.1265 µM): 0.833; relative viability ([1]; first compound 0.4 µM): 0.509; relative viability ([1]; first compound 1.265 µM): 0.223; relative viability ([1]; first compound 4 µM): 0.258; relative viability (Mirin + Luminespib; first compound 0.25 µM): 1.09; relative viability (Mirin + Luminespib; first compound 0.7906 µM): 0.983; relative viability (Mirin + Luminespib; first compound 2.5 µM): 1.01; relative viability (Mirin + Luminespib; first compound 7.906 µM): 0.826; relative viability (Mirin + Luminespib; first compound 25 µM): 0.695; relative viability (Mirin + Dasatinib; first compound 0.25 µM): 0.45; relative viability (Mirin + Dasatinib; first compound 0.7906 µM): 0.424; relative viability (Mirin + Dasatinib; first compound 2.5 µM): 0.493; relative viability (Mirin + Dasatinib; first compound 7.906 µM): 0.415; relative viability (Mirin + Dasatinib; first compound 25 µM): 0.438; relative viability ([2]; first compound 0.04 µM): 0.327; relative viability ([2]; first compound 0.1265 µM): 0.3; relative viability ([2]; first compound 0.4 µM): 0.319; relative viability ([2]; first compound 1.265 µM): 0.279; relative viability ([2]; first compound 4 µM): 0.294
